This is an account of results in patent US7429460B2, “Methods of screening for inhibitors of phospholipid synthesis related to glycolipid-storage diseases” (Yeda Research and Development Co., Ltd., priority 2003, dated 2008).

The test system of one assay is CCT α and β1/2 RNA. Description: RT-PCR of CCT isoforms in treated neurons. The format is cell-based, rat. As to conditions: 500 μM CBE, up to 8-days. How it is done:
Total cellular RNA was prepared from ˜0.5×10^6 neurons grown on 24 mm cover slips using the RNeasy Mini Kit (Qiagen, Hilden, Germany) according to manufacturers'instructions. The reverse transcription-polymerase chain reaction (RT-PCR) was performed using the QIAGEN OneStep RT-PCR kit (Qiagen, Hilden, Germany). Briefly, each reaction contained 10 ng of total RNA, 0.6 μM of primers, 1.6 mM deoxynucleotide triphosphates (0.4 mM each) and 1 μl QIAGEN OneStep RT-PCR Enzyme Mix in the supplied buffer in a total volume of 25 μl. Primers (CCT: 5′-ACTTTAGTAA GCCCTATGTC (SEQ ID NO. 7) and 5′-[…] (SEQ ID NO. 8), 34 cycles, annealing temperatures 53° C.; CCT: 5′-[…] (SEQ ID NO. 9) and 5′-[…] (SEQ ID NO. 10), 30 cycles, annealing temperature 51° C.; glyceraldehyde -3-phosphate dehydrogenase: 5′-TTAGCACCCCTGGCCAAGG (SEQ ID NO. 11) and 5′- ATTACTCCTT GGAGGCCATG (SEQ ID NO. 12), 23 cycles, annealing temperature 50° C.) were designed using the MacMolly Tetra program (Sofigene, Berlin, Germany) and were synthesized by the Weizmann Institute Oligonucleotide and Peptide Synthesis facility. […] PCR products, 9 μl each, were analyzed by electrophoresis in 1.5 % agarose gels.

In the next assay the test system is rat hippocampal neurons. The note with it: 200 μM CBE, after 3 days in culture; cited from earlier work.
In the next assay the test system is human macrophages. Description: PC synthesis in macrophage cultures. As to conditions: 500 μM CBE for 6 days. The format is cell-based. As for the experimental part:
Human macrophages were obtained from healthy donors. Blood samples were immediately diluted 2.5 times with PBS pH 7.4 and layered on 3 ml Ficoll Histopaque 1.077 in conical tubes. The tubes were then centrifuged at 400 g for 25 min. The peripheral blood mononuclear leukocyte (PBL) band at the PBS-plasma/Ficoll interface was taken for further analyses. PBL were washed twice with PBS pH 7.4, and resuspended in 5 ml of RPMI 1640 containing 10% fetal calf serum. An aliquot of the cell suspension was used to assess cell viability using the exclusion trypan-blue test. The cell suspension was adjusted to a final concentration of 6*10^6 cells/ml and incubated for 3 hours at 37° C. in a plastic Petri dish (Falcon). Non adherent cell suspension (mononuclear leukocytes) was then transferred to a culture flask while the adherent cells (mainly macrophages) were cultured separately in RPMI 1640 supplemented with 10% fetal calf serum, 2 mM L-glutamine, 100 U/ml penicillin and 0.1 mg/ml streptomycin. The cells were cultured in separate cultures with or without 500 μM CBE for 5 days; on day 5, PMA was added to the macrophage suspension (final concentration: 10 ng/ml) to allow full differentiation. […] The cells were thoroughly washed with non-radioactive medium and lipids were further extracted and analyzed as described herein above. […]

Assay [1] concerns CTP:phosphocholine cytidylyltransferase (CCT). Description: CCT assay in homogenates of treated hippocampal neurons. Type of assay: cell-based, rat. As to conditions: neurons incubated with 500 μM CBE for 4- or 8-days. How it is done: Neurons from individual cover slips were washed twice with ice-cold phosphate-buffered saline, and cells removed by scraping into 300 μl of buffer containing 50 mM imidazole, 2 mM EDTA, 150 mM KCl, 6 mM ADP, 0.2 mM phenylmethylsulfonylfluoride, 1 μg/ml pepstatin and 1 μg/ml leupeptin. After brief sonication, an aliquot was removed for DNA determination and 100 μl was used for the CCT assay.
CCT was assayed as described (Weinhold P A and Feldman D A. 1992. Choline-phosphate cytidylyltransferase. Methods Enzymol. 209, 248-258), with some minor modifications. The assay was performed in a final volume of 200 μl containing 1.6 mM phosphorylcholine/0.25 μCi [^14C]methyl phosphorylcholine, 3 mM CTP, 12 mM magnesium acetate, and DOPC liposomes with or without oleic acid and GicCer or GalCer, as indicated in the figure legends. Liposomes were prepared by sonicating resuspended lipids in the assay buffer at room temperature for 3 min using a sonicator (Sonics & Materials Inc., Newtown, Conn.) fitted with a micro-tip probe set to 750 W output, using 25% of the maximal amplitude and with pulsations of 9.0 sec every 9.2 sec, which gave a translucent liposome preparation with no precipitates. The final concentration of DOPC and oleic acid in the liposomes was 500 μM each. […]

Structures are written as SMILES.

With `O[C@H]1[C@H](O)[C@@H](O)[C@@H]2O[C@@H]2[C@@H]1O` (racemic) [CBE, conduritol-B-epoxide], the “CCT RNA levels (RT-PCR)” value with CCT α and β1/2 RNA was “No changes”. The “axons longer than untreated counterparts” value with rat hippocampal neurons is around 20%. Moreover, the “[14C]-PC in treated macrophages” value in the assay with human macrophages was “dramatic increase”. Moreover, in assay [1], the “elevation of CCT activity” value is 2-3 fold.
